Tests used:
BEAS-2B cells = experiment: In vitro engulfment assay: apoptotic cell uptake by BEAS-2B cells; type: cell-based; details: human IGF-I
Procedure: (§1) LR73, SVEC-40, BEAS-2B, and 16HBE14o-cells were seeded in a 24 well plate. Thymocytes were isolated from 4-6 week old mice and induced to undergo apoptosis with dexamethasone. Thymocytes or prepared microvesicles were then stained with either CypHer5E (GE Healthcare, PA15401) or TAMRA (Invitrogen, C-1171). LR73 and SVEC-40 cells were incubated with apoptotic thymocytes at a 1:10 phagocyte to target ratio, BEAS-2B at a 1:5 phagocyte to target ratio, and 16HBE14o—at a 1:20 phagocyte to target ratio for 2 hours. Mouse IGF-I (Sigma-Aldrich), human IGF-I (Sigma-Aldrich), human IGF-II (Sigma-Aldrich) were added to the phagocytes at the same time as addition of apoptotic targets. For IGFBP3 studies, IGFBP3 (Sigma-Aldrich) was added to media or supernatant from J774 cells for one hour to allow IGFBP3 to bind to any available IGF-I, then the mix is added to phagocytes along with apoptotic targets. […] Targets were then washed off three times with PBS, and the cells were dissociated from the plate with trypsin and the engulfment assessed by flow cytometry.

[1] = tested on: 16HBE14o- human airway epithelial cells; experiment: In vitro engulfment assay: apoptotic thymocyte uptake by 16HBE14o- cells; type: cell-based; details: IGF-1 treatment
Procedure: as §1

LR73 cells = details: liposomes of 150-200 nm; IGF-1 50 ng/mL, EGF or VEGF 100 ng/mL each
Procedure: LR73, SVEC-40, BEAS-2B, and 16HBE14o-cells were seeded in a 24 well plate. Thymocytes were isolated from 4-6 week old mice and induced to undergo apoptosis with dexamethasone. Thymocytes or prepared microvesicles were then stained with either CypHer5E (GE Healthcare, PA15401) or TAMRA (Invitrogen, C-1171). LR73 and SVEC-40 cells were incubated with apoptotic thymocytes at a 1:10 phagocyte to target ratio, BEAS-2B at a 1:5 phagocyte to target ratio, and 16HBE14o—at a 1:20 phagocyte to target ratio for 2 hours. Mouse IGF-I (Sigma-Aldrich), human IGF-I (Sigma-Aldrich), human IGF-II (Sigma-Aldrich) were added to the phagocytes at the same time as addition of apoptotic targets. For IGFBP3 studies, IGFBP3 (Sigma-Aldrich) was added to media or supernatant from J774 cells for one hour to allow IGFBP3 to bind to any available IGF-I, then the mix is added to phagocytes along with apoptotic targets. For all pharmacological studies, phagocytes were pre-incubated with the compounds listed below for one hour prior to addition of apoptotic targets: cytochalasin D (Sigma-Aldrich, C8273, 1 μM), Latrunculin A (Tocris, 3973, 150 nM), CK-666 (Tocris, 3950, 25 μM-100 μM), OSI-906 (Selleckchem, S1091, 5 nM-40 nM), NVP-AEW541 (Selleckchem, S1034, 25 nM-100 nM), Rapamycin (Sigma-Aldrich, R0395, […]), MK-2206 2HCl (Selleckchem, S1078, 10 nM-1 U0126-EtOH (Selleckchem, S1102, […]), Wortmannin (Sigma-Aldrich, W1628, 50 nM-200 nM), Y27632 (Calbiochem, 688000, 3.75 μM-15 μM), or GSK269962 (Tocris, 4009, 80 nM-2 μM). […] Targets were then washed off three times with PBS, and the cells were dissociated from the plate with trypsin and the engulfment assessed by flow cytometry.
Liposomes were prepared by dissolving the lipids (phosphatidylserine, dioleoyl phosphatidylcholine, cholesterol and the lipid DiD dye) in chloroform, evaporating chloroform under flow of argon gas in a glass vial, then subjecting the lipid layer to overnight lyophilization to remove traces of organic solvent. Then normal saline was added for hydration, and intense vortexing was preformed to prepare multilamellar vesicles (MIN). Liposomes were repeatedly filtered through a 0.2 um Nuclepore polycarbonate filter to prepare smaller particles. Particle size was verified by dynamic light scattering using Nicomp 370.

[2] = tested on: phosphatidylserine (PtdSer) on apoptotic thymocytes; experiment: Annexin V binding to apoptotic thymocytes; type: cell-based, mouse; details: n=6
IC-21 cells = experiment: Apoptotic thymocyte engulfment by IC-21 cells; type: cell-based; details: indicated concentrations of mouse IGF-1 or human insulin
[3] = tested on: resident peritoneal macrophages; experiment: Apoptotic cell engulfment by resident peritoneal macrophages; type: cell-based, mouse; details: even with supra-physiological concentrations of IGF-1
Procedure: (§2) To obtain bone-marrow derived macrophages, femurs were removed from 8 week old mice and flushed with 5 mL of sterile PBS containing 5% FBS. The cell suspension was centrifuged, treated with red blood cell lysis buffer, washed, and then plated onto sterile petri dishes in DMEM containing 10% L929 media, 10% FBS and 1% penicillin/streptomycin/glutamine (PSQ). Media was replenished every 2 to 3 days and differentiated cells were used at day 6 post-harvest. Resident peritoneal macrophages were obtained by flushing the peritoneal cavity of mice with 10 mL of cold PBS containing 5% FBS. Collected cells were spun down, resuspended in X-VIVO 10 (Lonza) and plated at a concentration of 3×10^5 cells per well in a 24 well plate for IGF-1 secretion assays, and 5×10^5 per well in a 24 well plate for engulfment assays. Floating cells were washed the next day and remaining peritoneal macrophages were used 2 days after isolation. Alveolar macrophages were isolated by flushing the lungs with 1 mL of cold PBS instilled intratracheally (five flushes). Collected cells were centrifuged, resuspended in F12K media containing 10% FBS and 1% PSQ, and seeded at 1×10^5 cells per well in a 48-well plate. All floating cells were washed away the next day and remaining cells were used in assays 2 days after isolation.

[4] = tested on: resident peritoneal macrophages; experiment: Liposome uptake by resident peritoneal macrophages; type: cell-based, mouse; details: exposed to IGF-1 vs control
Procedure: as §2

[5] = tested on: YFP airway epithelial cells; experiment: In vivo engulfment assay: airway epithelial cells; design: species or system mouse; details: 1 μg IGF-1 intranasally
Procedure: (§3) CCSP-Cre/YFP mice were administered PBS or 1 μg of IGF-1 intranasally. One hour later, 100 million CypHer5E-labelled apoptotic thymocytes with or without IGF-I were injected intranasally for 3.5 hours. The BAL fluid was harvested and the lungs excised, minced, and digested into a single cell suspension. The cells were then stained with appropriate markers: CD11c and Siglec F for alveolar macrophage markers and EpCam (along with YFP expression) for airway epithelial cells and analyzed by flow cytometry to assess apoptotic cell uptake by the airway epithelial cells and the alveolar macrophages.

alveolar macrophages = experiment: In vivo engulfment assay: alveolar macrophages; design: species or system mouse; details: same IGF-1 treated mice
Procedure: as §3

insulin-like growth factor I [IGF-1]
apoptotic cell uptake by BEAS-2B cells (BEAS-2B cells): engulfment dampening effect of IGF-1 was also seen
apoptotic thymocyte uptake by 16HBE14o- cells [1]: engulfment dampening effect of IGF-1 was also seen
uptake of PtdSer containing liposomes by LR73 cells (LR73 cells): enhanced the uptake of PtdSer containing liposomes
masking of phosphatidylserine on apoptotic cells (Annexin V binding) [2]: not due to masking phosphatidylserine
corpse uptake by IC-21 cells (IC-21 cells): did not affect corpse uptake
corpse uptake by resident peritoneal macrophages [3]: did not affect corpse uptake
liposome uptake by peritoneal macrophages [4]: comparable liposome uptake as control treated cells
apoptotic cell engulfment by YFP airway epithelial cells in vivo ([5]; apoptotic thymocytes): decreased apoptotic cell engulfment
liposome uptake by YFP airway epithelial cells in vivo ([5]; liposomes): enhanced lipo some uptake
engulfment of apoptotic cells or liposomes by lung macrophages in vivo (alveolar macrophages): unaffected in their ability to engulf these targets
